Here are results for 59 compounds from the METLIN SMRT retention time set (Domingo-Almenara et al. 2019).

This series can be described thus: gradient 5% acetonitrile 3 min, to 50% in 2 min, to 85% in 15 min, held 3 min, 100 µL/min. As to conditions: column: Zorbax Extend-C18 2.1 x 50 mm; eluents: water / acetonitrile, 0.1% formic acid. The method in brief: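 Retention times of pure standards were taken from adduct peaks that were selected by computer and manually inspected. Over 3 months, mixtures of ~100 molecules were run by HPLC–quadrupole time-of-flight mass spectrometry in positive and negative ionization mode. The Zorbax Extend-C18 column (2.1 × 50 mm, 1.8 μm) ran at 100 μL/min in water and acetonitrile, each containing 0.1% formic acid, with 40 μL dead volume and 900 μL dwell volume.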
`CCC(Oc1ccc(=O)n(-c2ccc(F)cc2)n1)C(=O)Nc1ccc(C(C)=O)cc1` (centres undefined) displayed an RP-LC retention time of 764 s.
Consider `CCC(=O)N1CCc2sc(C(=O)NCc3ccccn3)cc2C1`, for which the RP-LC retention time came out at 577 s.
In the case of `O=C(NC1CCCC1)C1CCCN(c2nccnc2Sc2ccccc2)C1` (centres undefined), the RP-LC retention time was determined as 1020 s.
The result for `C=CCNC(=O)c1cnn(-c2cc(-c3nc(C4CC4)no3)ccn2)c1C` reads 895 s; that for `CCn1cc(C(=O)NCc2ccccc2C)c(S(=O)(=O)N2CCSCC2)n1`, 1120 s.
Take `CN(Cc1ccoc1)C(=O)NC1CCCC1`: the RP-LC retention time worked out at 763 s.
The result for `Cc1ccc(C(=O)c2cnc3cc4c(cc3c2N2CCN(C)CC2)OCO4)cc1C` reads 581 s; that for `CCOc1ccccc1NC(=O)C1CCCN(c2nc3ccccc3nc2OCC)C1` (centres undefined), 1320 s; that for `O=C(c1cccc(F)c1)N1CCN(C(=O)c2nnn3c2COC(c2ccc(Cl)cc2)C3)CC1` (centres undefined), 931 s.
The result for `CC(C)N1C(=O)c2cccnc2Sc2cc(NC(=O)Cc3cccc(F)c3)ccc21` reads 876 s; that for `CC(NC(=O)c1cn(-c2cc(-c3nc(C(C)(C)C)no3)ccn2)cn1)c1ccccc1` (centres undefined), 1100 s; that for `O=C(NC1CC(=O)N(C2CC2)C1)c1cc(-c2ccccc2)n[nH]1` (centres undefined), 607 s.
The same measure for `CCOC(=O)c1c(C)c(C(=O)C(C)N(CC)C(=O)c2ccccc2Cl)c(C)n1CC` (centres undefined): 1050 s; for `CCc1cccc(C)c1Nc1c(-c2ccccc2O)nc2ncccn12`: 907 s; for `O=C(NC1CCN(c2cc(-c3ccc(Cl)cc3)[nH]n2)C1)c1ccc2cc[nH]c2c1` (centres undefined): 762 s.
As for `Cc1cccc(N2CCN(Cc3nc4nc(C)cc(N5CCOCC5)n4n3)CC2)c1`, the RP-LC retention time was determined as 636 s.
Compound `CCc1ccc(N2CC(c3noc(-c4ccc(OC)c(OC)c4)n3)CC2=O)cc1` (centres undefined) returned an RP-LC retention time of 925 s.
Turning to `Cc1ccc(CNC(=O)C2CCCN(c3nnc4ccccn34)C2)cc1` (centres undefined), the RP-LC retention time stood at 705 s.
The compound `Cc1ncc(C(=O)NC2CC2)c(=O)n1CC(=O)Nc1cc(F)ccc1F` registered an RP-LC retention time of 705 s.
`CCN1C(=O)C(C)(C(=O)Nc2cc(OC)ccc2OC)Oc2cccnc21` (centres undefined) showed an RP-LC retention time of 959 s.
In the case of `CN1C(=O)CC[C@]2(C(=O)NCc3cccc(C(F)(F)F)c3)CCCC[C@@H]12`, the RP-LC retention time came out at 744 s.
`Fc1ccc(-c2ccc(CNCc3cccs3)o2)cc1`: the RP-LC retention time came out at 706 s.
As to `Cn1cc(S(=O)(=O)N2CCCCC2)cc1C(=O)N1CCN(c2ccccc2F)CC1`, the RP-LC retention time was determined as 961 s.
In turn, `Cc1nc(-n2cccc2)sc1C(=O)Nc1ccc(-c2cn3c(n2)SCC3)cc1` yielded an RP-LC retention time of 627 s.
Turning to `CCNS(=O)(=O)c1cccnc1Nc1ccccc1`, the RP-LC retention time turned out to be 904 s.
The result for `CCOC(=O)c1c(C)oc2nc(C)nc(NCCc3ccc(OC)c(OC)c3)c12` reads 1050 s; that for `CCOc1ccc(NC(=O)N2CCC(n3c(-c4ccoc4)nc4cccnc43)C2)cc1` (centres undefined), 735 s.
The compound `CC1CCN(c2nnc(-c3nc(C4CC4)no3)c3ccccc23)CC1` returned an RP-LC retention time of 1140 s.
On to `O=C(Nc1cccc(F)c1)N1CCC(N2CCN(Cc3cccc(F)c3)C(=O)C2=O)CC1`, for which the RP-LC retention time was 755 s.
`Cc1ccc2[nH]cc(CCNC(=O)C3CCN(c4ccc(Cl)cc4)C3=O)c2c1` (centres undefined) gave an RP-LC retention time of 987 s.
Regarding `COc1ccc(OCC(=O)N2CCN(c3ccc(-c4nc(C)c(C)s4)cn3)CC2)cc1`, the RP-LC retention time is 855 s.
As for `CCCS(=O)(=O)Nc1cccc(-c2cn3ccc(C)cc3n2)c1`, the RP-LC retention time stood at 614 s.
Regarding `CN1CC=C(c2noc(CCC(=O)NCc3ccc4c(c3)OCO4)n2)CC1`, the RP-LC retention time is 587 s.
`Cc1ccc(-n2ccnc(NC(=O)Nc3ccc(F)c(Cl)c3)c2=O)cc1C` showed an RP-LC retention time of 1160 s.
As for `CCC1CN2C=NC(N3CCN(C(=O)Nc4ccc(OC)c(F)c4)CC3)=CC2=N1` (centres undefined), the RP-LC retention time worked out at 622 s.
Take `CCOC(=O)c1c(C)[nH]c(CCC(=O)NCCC(C)C)c1C`: the RP-LC retention time was found to be 816 s.
As for `O=C1Nc2ccc(S(=O)(=O)N3CCN(c4ccccn4)CC3)cc2C1=C1CCCC1`, the RP-LC retention time amounted to 662 s.
On to `CCN(Cc1ccccc1)C(=O)CN1C(=O)C2CCCCN2c2ccc(S(=O)(=O)N(C)C)cc21` (centres undefined), for which the RP-LC retention time is 647 s.
With `CN(C)CCCNC(=O)C1CCN(c2nc3ccc(-c4cccnc4)nc3s2)CC1`, the RP-LC retention time is 543 s.
`O=C(CCn1c(=O)sc2ccccc21)Nc1ccc(Br)cc1` came in with an RP-LC retention time of 884 s.
For the compound `CCc1nc(OCC(=O)NCCCOC)c2c(-c3ccc(F)cc3)noc2n1`, the RP-LC retention time was 890 s.
Take `Cc1ccc(C(=O)NCCn2c(C)cnc2C)s1`: the RP-LC retention time turned out to be 589 s.
For the compound `Cn1c(C(=O)NCC2CCCO2)cc2c1CCN(Cc1cccc(F)c1)C2` (centres undefined), the RP-LC retention time was determined as 618 s.
The compound `CCSc1nnc(NC(=O)c2nnn(-c3nc4c(s3)CCCC4)c2C)s1` registered an RP-LC retention time of 1190 s.
In turn, `COc1ccc(Cl)cc1NS(=O)(=O)c1cc(-c2cc(C(F)(F)F)[nH]n2)sc1C` showed an RP-LC retention time of 1060 s.
The same measure for `CCOC(=O)CNC(=O)N1CCC2(CC1)NC(=O)c1ccccc1O2`: 630 s.
`CN1c2cc(Cl)ccc2C(=O)NC12CCN(C(=O)Nc1ccc3c(c1)OCCO3)CC2` yielded an RP-LC retention time of 781 s.
With `CC1CCN(S(=O)(=O)c2ccc(-c3nnc(C(=O)NCC(C)c4ccccc4)o3)cc2)CC1` (centres undefined), the RP-LC retention time worked out at 1140 s.
For the compound `COc1cccc(S(=O)(=O)N2CCC3(CC2)N(c2ccccc2)C(=O)CS3=O)c1` (centres undefined), the RP-LC retention time amounted to 737 s.
As for `CCOc1ccc(C2Cn3nnc(-c4nc(-c5ccccc5Br)no4)c3CO2)cc1` (centres undefined), the RP-LC retention time came to 1230 s.
In the case of `O=C(NCCc1cccnc1)C1CCc2nc(N3CCCC3)ncc2C1` (centres undefined), the RP-LC retention time came out at 532 s.
Turning to `O=C(CC1CCN(C(=O)c2cc3cc(Cl)ccc3[nH]2)CC1)N1CCN(c2ccccn2)CC1`, the RP-LC retention time amounted to 669 s.
Take `O=C(c1ccc(F)c(F)c1)N1CCC(n2c(-c3ccoc3)nc3cccnc32)C1` (centres undefined): the RP-LC retention time was 745 s.
`CN(C)c1ccc(C(=O)NCCCCCCC(=O)NO)cc1` gave an RP-LC retention time of 631 s.
Consider `CCNc1cc(N2CCC(CCC(=O)NCc3ccc(C)cc3)CC2)ncn1`, for which the RP-LC retention time was found to be 676 s.
`Cc1ccc(NS(=O)(=O)c2ccc(-c3nnc(C4CCC4)o3)o2)cc1F` showed an RP-LC retention time of 962 s.
On to `COCCNC(=O)c1csc(N2CCN(c3ccccc3)CC2)n1`, for which the RP-LC retention time is 863 s.
Turning to `Fc1ccc(F)c(CN2CC(Oc3ccc(-c4noc(-c5ccncc5)n4)cc3)C2)c1`, the RP-LC retention time amounted to 726 s.
On to `COc1ccc(-c2noc(C3CC(=O)N(c4ccc(C)c(Cl)c4)C3)n2)cc1` (centres undefined), for which the RP-LC retention time worked out at 1050 s.
